# In patent publication US6737383B1, “Herbicidal oxadiazolidines” (priority 1999, dated 2004):
# Key:
# morningglory = assay: Test B pre/postemergence morningglory; type: in vivo, Ipomoea hederacea
# Procedure, shortened: (§1)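 Response is a visual 0-to-10 score relative to untreated plants, where 0 means no effect and 10 means complete control, taken twelve to sixteen days after application. Treatments went onto soil at planting and onto foliage of 1- to 4-leaf plants, using a surfactant-containing non-phytotoxic solvent.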
# soybean = assay: Test B pre/postemergence soybean; type: in vivo, Glycine max
# Procedure, shortened: as §1
# rape = assay: Test B pre/postemergence rape; type: in vivo, Brassica napus
# Procedure, shortened: as §1
# corn = assay: Test B pre/postemergence corn; type: in vivo, Zea mays
# Procedure, shortened: as §1
# cocklebur = assay: Test B pre/postemergence cocklebur; type: in vivo, Xanthium strumarium
# Procedure, shortened: as §1
# smallflower flatsedge = assay: Test B flood test smallflower flatsedge; type: in vivo, Cyperus difformis
# Procedure, shortened: (§2)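 Plants were grown to the 2-leaf stage before treatment with test chemical, then held in a greenhouse for twelve to sixteen days. Injury was visually rated against untreated controls on a 0–10 scale, where 0 is no effect and 10 is complete control.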
# bamyardgrass = assay: Test B flood test barnyardgrass; type: in vivo, Echinochloa crus-galli
# Procedure, shortened: as §2
# pigweed = assay: Test B pre/postemergence pigweed; type: in vivo, Amaranthus retroflexus
# Procedure, shortened: as §1
# wild oat = assay: Test B pre/postemergence wild oat; type: in vivo, Avena fatua
# Procedure, shortened: as §1
# velvetleaf = assay: Test B pre/postemergence velvetleaf; type: in vivo, Abutilon theophrasti
# Procedure, shortened: as §1
# rice = assay: Test B flood test rice; type: in vivo, Oryza sativa
# Procedure, shortened: as §2
# surinam grass = assay: Test B pre/postemergence surinam grass; type: in vivo, Brachiaria decumbens
# Procedure, shortened: as §1
# sugar beet = assay: Test B pre/postemergence sugar beet; type: in vivo, Beta vulgaris
# Procedure, shortened: as §1
# bedstraw = assay: Test B pre/postemergence bedstraw; type: in vivo, Galium aparine
# Procedure, shortened: as §1
# blackgrass = assay: Test B pre/postemergence blackgrass; type: in vivo, Alopecurus myosuroides
# Procedure, shortened: as §1
# purple nutsedge = assay: Test B pre/postemergence purple nutsedge; type: in vivo, Cyperus rotundus
# Procedure, shortened: as §1
# [1] = Postemergence, Rate 125 g/ha, scale of 0 to 10 where 0 is no effect and 10 is complete control
# [2] = Preemergence, Rate 62 g/ha, scale of 0 to 10 where 0 is no effect and 10 is complete control
# [3] = Preemergence, Rate 125 g/ha, 0 is no effect, 10 is complete control
# [4] = Preemergence, Rate 250 g/ha, scale 0 to 10, 0 is no effect, 10 is complete control
# [5] = Preemergence, Rate 500 g/ha, scale 0 to 10 (0 no effect, 10 complete control)
# [6] = Rate 62 g/ha, Postemergence, scale of 0 to 10 where 0 is no effect and 10 is complete control
# [7] = Rate 250 g/ha, Postemergence, scale 0 to 10, 0 is no effect, 10 is complete control
# [8] = Rate 500 g/ha, Postemergence, scale 0 to 10
# [9] = Postemergence (flood test species), Rate 125 g/ha, scale of 0 to 10 where 0 is no effect and 10 is complete control
# [10] = Rate 62 g/ha, Postemergence section, flood test species, scale of 0 to 10 where 0 is no effect and 10 is complete control
# [11] = Rate 250 g/ha, Postemergence (flood test), scale 0 to 10, 0 is no effect, 10 is complete control
# [12] = Rate 500 g/ha, listed under Postemergence (flood test species), scale 0 to 10
compound,measurement,setting,value
CC(C)Cn1c(=O)on(C(=O)N(c2ccc(F)cc2)C(C)C)c1=O [Compound 169],Morningglory plant response rating,morningglory; [1],1
same,Morningglory plant response rating,morningglory; [2],0
same,Morningglory plant response rating (0 to 10 scale),morningglory; [3],0
same,Morningglory plant response rating,morningglory; [4],0
same,Morningglory plant response rating,morningglory; [5],0
same,Morningglory plant response rating,morningglory; [6],1
same,"Plant response rating, Morningglory",morningglory; [7],5
same,Morningglory plant response rating,morningglory; [8],7
same,Soybean plant response rating,soybean; [1],1
same,Soybean plant response rating,soybean; [2],0
same,Soybean plant response rating (0 to 10 scale),soybean; [3],0
same,Soybean plant response rating,soybean; [4],2
same,Soybean plant response rating,soybean; [5],5
same,Soybean plant response rating,soybean; [6],1
same,"Plant response rating, Soybean",soybean; [7],3
same,Soybean plant response rating,soybean; [8],6
same,Rape plant response rating,rape; [1],0
same,Rape plant response rating,rape; [2],2
same,Rape plant response rating (0 to 10 scale),rape; [3],2
same,Rape plant response rating,rape; [4],6
same,Rape plant response rating,rape; [5],10
same,Rape plant response rating,rape; [6],0
same,"Plant response rating, Rape",rape; [7],0
same,Rape plant response rating,rape; [8],3
same,Corn plant response rating,corn; [1],0
same,Corn plant response rating,corn; [2],0
same,Corn plant response rating (0 to 10 scale),corn; [3],0
same,Corn plant response rating,corn; [4],3
same,Corn plant response rating,corn; [5],6
same,Corn plant response rating,corn; [6],0
same,"Plant response rating, Corn",corn; [7],0
same,Corn plant response rating,corn; [8],0
same,Cocklebur plant response rating,cocklebur; [1],0
same,Cocklebur plant response rating,cocklebur; [2],0
same,Cocklebur plant response rating (0 to 10 scale),cocklebur; [3],0
same,Cocklebur plant response rating,cocklebur; [4],0
same,Cocklebur plant response rating,cocklebur; [5],0
same,Cocklebur plant response rating,cocklebur; [6],0
same,"Plant response rating, Cocklebur",cocklebur; [7],0
same,Cocklebur plant response rating,cocklebur; [8],3
same,S. Flatsedge plant response rating,smallflower flatsedge; [9],0
same,S. Flatsedge plant response rating,smallflower flatsedge; [10],0
same,"Plant response rating, S. Flatsedge",smallflower flatsedge; [11],0
same,S. Flatsedge plant response rating,smallflower flatsedge; [12],0
same,Barnyardgrass plant response rating,bamyardgrass; [9],0
same,Barnyardgrass plant response rating,bamyardgrass; [10],0
same,"Plant response rating, Barnyardgrass",bamyardgrass; [11],0
same,Barnyardgrass plant response rating,bamyardgrass; [12],0
same,Redroot pigweed plant response rating,pigweed; [1],0
same,Redroot pigweed plant response rating,pigweed; [2],6
same,Redroot pigweed plant response rating (0 to 10 scale),pigweed; [3],6
same,Redroot pigweed plant response rating,pigweed; [4],8
same,Redroot pigweed plant response rating,pigweed; [5],8
same,Redroot pigweed plant response rating,pigweed; [6],0
same,"Plant response rating, Redroot pigweed",pigweed; [7],0
same,Redroot pigweed plant response rating,pigweed; [8],3
same,Wild oats plant response rating,wild oat; [2],8
same,Wild oats plant response rating (0 to 10 scale),wild oat; [3],8
same,Wild oats plant response rating,wild oat; [4],8
same,Wild oats plant response rating,wild oat; [5],10
same,"Plant response rating, Wild oats",wild oat; [7],0
same,Wild oats plant response rating,wild oat; [8],2
same,Velvetleaf plant response rating,velvetleaf; [2],2
same,Velvetleaf plant response rating (0 to 10 scale),velvetleaf; [3],2
same,Velvetleaf plant response rating,velvetleaf; [4],6
same,Velvetleaf plant response rating,velvetleaf; [5],8
same,"Plant response rating, Velvetleaf",velvetleaf; [7],0
same,Velvetleaf plant response rating,velvetleaf; [8],0
same,Rice plant response rating,rice; [9],0
same,Rice plant response rating,rice; [10],0
same,"Plant response rating, Rice",rice; [11],0
same,Rice plant response rating,rice; [12],0
same,B. signalgrass plant response rating,surinam grass; [1],0
same,B. signalgrass plant response rating,surinam grass; [2],7
same,B. signalgrass plant response rating (0 to 10 scale),surinam grass; [3],7
same,B. signalgrass plant response rating,surinam grass; [4],7
same,B. signalgrass plant response rating,surinam grass; [5],7
same,B. signalgrass plant response rating,surinam grass; [6],0
same,"Plant response rating, B. signalgrass",surinam grass; [7],0
same,B. signalgrass plant response rating,"surinam grass; Rate 500 g/ha, Postemergence, scale 0 to 10, 0 no effect, 10 complete control",7
same,Sugarbeets plant response rating,sugar beet; [1],0
same,Sugarbeets plant response rating,sugar beet; [2],0
same,Sugarbeets plant response rating (0 to 10 scale),sugar beet; [3],0
same,Sugarbeets plant response rating,sugar beet; [4],7
same,Sugarbeets plant response rating,sugar beet; [5],8
same,Sugarbeets plant response rating,sugar beet; [6],0
same,"Plant response rating, Sugarbeets",sugar beet; [7],0
same,Sugarbeets plant response rating,sugar beet; [8],0
same,Bedstraw plant response rating,bedstraw; [1],2
same,Bedstraw plant response rating,bedstraw; [2],0
same,Bedstraw plant response rating (0 to 10 scale),bedstraw; [3],0
same,Bedstraw plant response rating,bedstraw; [4],7
same,Bedstraw plant response rating,bedstraw; [5],10
same,Bedstraw plant response rating,bedstraw; [6],2
same,"Plant response rating, Bedstraw",bedstraw; [7],7
same,Blackgrass plant response rating,blackgrass; [1],4
same,Blackgrass plant response rating,blackgrass; [2],3
same,Blackgrass plant response rating (0 to 10 scale),blackgrass; [3],3
same,Blackgrass plant response rating,blackgrass; [4],8
same,Blackgrass plant response rating,blackgrass; [5],10
same,Blackgrass plant response rating,blackgrass; [6],2
same,"Plant response rating, Blackgrass",blackgrass; [7],5
same,Blackgrass plant response rating,blackgrass; [8],9
same,Nutsedge plant response rating,purple nutsedge; [1],0
same,Nutsedge plant response rating,purple nutsedge; [2],0
same,Nutsedge plant response rating (0 to 10 scale),purple nutsedge; [3],0
same,Nutsedge plant response rating,purple nutsedge; [4],0
same,Nutsedge plant response rating,purple nutsedge; [5],3
same,Nutsedge plant response rating,purple nutsedge; [6],0
same,"Plant response rating, Nutsedge",purple nutsedge; [7],0
same,Nutsedge plant response rating,purple nutsedge; [8],0
